Reference: patent US20220389061A1, “IMMUNOMODULATORS” (priority 2019, published 2022)
Like-named read-outs stand apart in the source and are kept apart here. Positions of bridges follow the written chain, without caps; N, C: chain ends. Non-standard residues stand in square brackets, D forms with d. Residues, ends and D or L forms follow the SMILES beside them. *: point of attachment. Trp(1-CH2COOH) = N[C@@H](Cc1cn(CC(=O)O)c2ccccc12)C(=O)O; X65 = CC(C)(C)OC(=O)Nc1ccc(NC(=S)*)cc1; X63 = COc1cc([N+](=O)[O-])ccc1NC(=S)*; X8 = NC(=O)c1c[nH]c2c(NC(=S)*)cccc12; Hyp = O=C(O)[C@@H]1C[C@@H](O)CN1; X11 = S=C(Nc1ccccc1-c1ccccc1)*; NMeNle = CCCC[C@H](NC)C(=O)O; X20 = O=C(Oc1ccc2ccccc2c1)*; NMeA = CN[C@@H](C)C(=O)O; Dab = NCC[C@H](N)C(=O)O; Dap = NC[C@H](N)C(=O)O

Biological target: T1, PD-1/PD-L1 (Homo sapiens, UniProt Q9NZQ7)
T1 construct: TVMV protease site linker (C); made in house; host or cells: HEK293T cells
T1 sequence (Q9NZQ7 18-239): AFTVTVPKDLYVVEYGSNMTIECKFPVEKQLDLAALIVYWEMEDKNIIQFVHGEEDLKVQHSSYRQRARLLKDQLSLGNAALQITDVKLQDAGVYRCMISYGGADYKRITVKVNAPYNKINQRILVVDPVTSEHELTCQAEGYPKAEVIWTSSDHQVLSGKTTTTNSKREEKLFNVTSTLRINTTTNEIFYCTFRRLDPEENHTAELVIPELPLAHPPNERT
Test: PD-1/PD-L1 Homogenous Time-Resolved Fluorescence (HTRF) binding assay
Procedure, shortened: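 Compounds preincubated 15 min with PD-L1-His (10 nM final), then PD-1-Ig (20 nM final) added for 15 min in dPBS with 0.1% BSA, 0.05% Tween-20. Detection by Eu-cryptate anti-Ig (1 nM) and APC anti-His (20 nM) HTRF.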

[1] = PD-L1-His 10 nM pre-incubated with inhibitor, PD-1-Ig 20 nM, read-out: HTRF IC50

Compound	IC50 [1] [nM]	IC50 [nM]
CCCC[C@H]1C(=O)N(C)[C@@H](CCCC)C(=O)N[C@@H](CC(C)C)C(=O)N[C@H](C(=O)NCC(N)=O)CSCC(=O)N[C@@H](Cc2ccc(O)cc2)C(=O)N(C)[C@@H](C)C(=O)N[C@@H](CC(N)=O)C(=O)N2CCC[C@H]2C(=O)N[C@@H](CNC(=O)Oc2ccc3ccccc3c2)C(=O)N[C@@H](CC(C)C)C(=O)N2C[C@H](O)C[C@H]2C(=O)N[C@@H](Cc2c[nH]c3ccccc23)C(=O)N[C@@H](CCNC(=O)Oc2ccc3ccccc3c2)C(=O)N[C@@H](Cc2cn(CC(=O)O)c3ccccc23)C(=O)N1C [Example 3037] ({CH2CO}-Y[NMeA]NP[Dap](X20)L[Hyp]W[Dab](X20)[Trp(1-CH2COOH)][NMeNle][NMeNle]LCG-NH2; thioether N-14)	–	5
CCCC[C@H]1C(=O)N(C)[C@@H](CCCC)C(=O)N[C@@H](CC(C)C)C(=O)N[C@H](C(=O)NCC(N)=O)CSCC(=O)N[C@@H](Cc2ccc(O)cc2)C(=O)N(C)[C@@H](C)C(=O)N[C@@H](CC(N)=O)C(=O)N2CCC[C@H]2C(=O)N[C@@H](CNC(=S)Nc2ccccc2-c2ccccc2)C(=O)N[C@@H](CC(C)C)C(=O)N2C[C@H](O)C[C@H]2C(=O)N[C@@H](Cc2c[nH]c3ccccc23)C(=O)N[C@@H](CCNC(=S)Nc2ccccc2-c2ccccc2)C(=O)N[C@@H](Cc2cn(CC(=O)O)c3ccccc23)C(=O)N1C [Example 1128] ({CH2CO}-Y[NMeA]NP[Dap](X11)L[Hyp]W[Dab](X11)[Trp(1-CH2COOH)][NMeNle][NMeNle]LCG-NH2; thioether N-14)	0.6	–
CCCC[C@H]1C(=O)N(C)[C@@H](CCCC)C(=O)N[C@@H](CC(C)C)C(=O)N[C@H](C(=O)NCC(N)=O)CSCC(=O)N[C@@H](Cc2ccc(O)cc2)C(=O)N(C)[C@@H](C)C(=O)N[C@@H](CC(N)=O)C(=O)N2CCC[C@H]2C(=O)N[C@@H](CNC(=S)Nc2ccc(NC(=O)OC(C)(C)C)cc2)C(=O)N[C@@H](CC(C)C)C(=O)N2C[C@H](O)C[C@H]2C(=O)N[C@@H](Cc2c[nH]c3ccccc23)C(=O)N[C@@H](CCNC(=S)Nc2ccc(NC(=O)OC(C)(C)C)cc2)C(=O)N[C@@H](Cc2cn(CC(=O)O)c3ccccc23)C(=O)N1C [Example 1041] ({CH2CO}-Y[NMeA]NP[Dap](X65)L[Hyp]W[Dab](X65)[Trp(1-CH2COOH)][NMeNle][NMeNle]LCG-NH2; thioether N-14)	2.3	–

More lines, main results first:

IC50 [1] [nM]	Compound	IC50 [nM]
3.9	CCCC[C@H]1C(=O)N(C)[C@@H](CCCC)C(=O)N[C@@H](CC(C)C)C(=O)N[C@H](C(=O)NCC(N)=O)CSCC(=O)N[C@@H](Cc2ccc(O)cc2)C(=O)N(C)[C@@H](C)C(=O)N[C@@H](CC(N)=O)C(=O)N2CCC[C@H]2C(=O)N[C@@H](CN)C(=O)N[C@@H](CC(C)C)C(=O)N2C[C@H](O)C[C@H]2C(=O)N[C@@H](Cc2c[nH]c3ccccc23)C(=O)N[C@@H](CCNC(=S)Nc2cccc3c(C(N)=O)c[nH]c23)C(=O)N[C@@H](Cc2cn(CC(=O)O)c3ccccc23)C(=O)N1C [Example 3027] ({CH2CO}-Y[NMeA]NP[Dap]L[Hyp]W[Dab](X8)[Trp(1-CH2COOH)][NMeNle][NMeNle]LCG-NH2; thioether N-14)	–
1.2	CCCC[C@H]1C(=O)N(C)[C@@H](CCCC)C(=O)N[C@@H](CC(C)C)C(=O)N[C@H](C(=O)NCC(N)=O)CSCC(=O)N[C@@H](Cc2ccc(O)cc2)C(=O)N(C)[C@@H](C)C(=O)N[C@@H](CC(N)=O)C(=O)N2CCC[C@H]2C(=O)N[C@@H](CNC(=S)Nc2ccc([N+](=O)[O-])cc2OC)C(=O)N[C@@H](CC(C)C)C(=O)N2C[C@H](O)C[C@H]2C(=O)N[C@@H](Cc2c[nH]c3ccccc23)C(=O)N[C@@H](CCN)C(=O)N[C@@H](Cc2cn(CC(=O)O)c3ccccc23)C(=O)N1C [Example 1112] ({CH2CO}-Y[NMeA]NP[Dap](X63)L[Hyp]W[Dab][Trp(1-CH2COOH)][NMeNle][NMeNle]LCG-NH2; thioether N-14)	–
